Experiment: Accelerated stability test (50° C.) with pH stability test of sucralose sample solution
Assay type: physicochemical
Conditions: for Days to pH Failure / Days to pH Failure (Final Product Moisture Content) / Days to pH Failure (Initial Moisture Content) / Ph Stability: 50° C.; for Days to pH Failure: WHIRLPAK polyethylene bags, failure = pH drop ≧1.0; for stability at intermediate moisture contents compared with final moisture levels: crystallized with no pH control, intermediate moisture 3 to 5% vs final 0.05, 0.11, 0.21%; for Initial pH difference: sample solution vs pH-adjusted water at time zero; for Initial pH: sample solution (5 g in 50 ml pH-adjusted water) at time zero; for Days to pH Failure (Final Product Moisture Content): final dried product; for Days to pH Failure (Final Product Moisture Content) / Days to pH Failure (Initial Moisture Content): Example 3; for Days to pH Failure (Initial Moisture Content): partially dried product at intermediate (initial) moisture content
Source text: Label seven 6 oz. and seven 18 oz. WHIRLPAK® polyethylene bags with indelible marker for each batch being tested for stability. Accurately weigh 25 g±0.01 g of sucralose into each 6 oz. WHIRLPAK® polyethylene bag. Heat or impulse seal the 6 oz. bag to ensure air tightness. Cut off any excess polyethylene at the top of the bag above the seal. Place the 6 oz. sealed bag into the 18 oz. bag and heat or impulse seal the 18 oz. bag to ensure air tightness. Roll down the top of the 18 oz. bag above the seal and bend the metal ties to form hooks.
Place the prepared bags into an oven stabilized at 50° C.±0.5° C. by hanging them from racks by the bag hooks. The bags must be freely suspended and not touch anything. Record the time samples are placed into the oven.
The pH stability test is conducted on the sucralose at time zero (the day the samples are placed in the oven, before the sucralose is exposed to elevated temperature) and every 24 hours until the batch being tested fails the test.
Place approximately 100 ml of deionized water into a 150 ml beaker. Using 0.1 N hydrochloric acid and/or 0.1 N sodium hydroxide, adjust the pH of the water to be between 5.8 and 6.0. Record the pH reading.
Accurately weigh 5 g±0.001 g of the product to be tested and transfer it to a 50 ml volumetric flask. Dissolve and bring to the mark by adding pH-adjusted water. If the sample to be tested is one that has been exposed to heat, remove one bag of the batch being tested from the oven and allow it to cool to room temperature before opening and sampling.
Pour the solution into a 100 ml beaker containing a stir bar, and slowly stir the solution on a magnetic stirrer. Immerse the pH electrode in the sample, allow the pH reading to stabilize, and record the pH reading of the sample. If no pH drop is observed after all the bags have been tested, the experiment is void and the test must repeated with a larger number of bags.
Record (to one decimal place) the pH of both the pH-adjusted water used and the sample sucralose solution. Subtract the pH of the […]. Report the result as (−) for a pH drop and (+) for a pH gain, e.g.:
The sample fails the test if there is a pH drop of 1.0 pH unit or more. The pH stability of the batch is defined as the number of days until the pH drop between the sample solution and that of the pH adjusted water is ≧1.0.
Samples of sucralose were tested for stability using the above procedures, but using bags of different moisture permeability. All other experimental details were the same. The TYVEK®/polyethylene bags are permeable; the WHIRLPAK® bags are less permeable. The A8080 bag consists of aluminum foil laminated to low-density polyethylene, which makes it very impermeable to moisture.

[1] = Example 2, pH at crystallizer varied
[2] = Example 1, sodium acetate in mother liquor varied
[3] = (−) pH drop, (+) pH gain, Example 1
[4] = package A8080 (aluminum foil laminated to low-density polyethylene), impermeable
[5] = package FF 91 TYVEK/Polyethylene, very permeable

SMILES | Days to pH Failure [1] | Initial pH difference [1] | Days to pH Failure [2] | Initial pH [2] | Initial pH difference [3] | other results
OC[C@H]1O[C@H](O[C@]2(CCl)O[C@H](CCl)[C@@H](O)[C@@H]2O)[C@H](O)[C@@H](O)[C@H]1Cl [Sample 32, 4,1′,6′-trichloro-4,1′,6′-trideoxy-galactosucrose] | 3 Days | −0.90 |  |  |  | stability at intermediate moisture contents compared with final moisture levels: less stable at intermediate moisture contents (3 to 5%) than they were at their final moisture levels
OC[C@H]1O[C@H](O[C@]2(CCl)O[C@H](CCl)[C@@H](O)[C@@H]2O)[C@H](O)[C@@H](O)[C@H]1Cl [Sample 8, 4,1′,6′-trichloro-4,1′,6′-trideoxy-galactosucrose] |  |  | 5 Days | 5.19 | −0.73 | 
OC[C@H]1O[C@H](O[C@]2(CCl)O[C@H](CCl)[C@@H](O)[C@@H]2O)[C@H](O)[C@@H](O)[C@H]1Cl [Sample 43, 4,1′,6′-trichloro-4,1′,6′-trideoxy-galactosucrose] | 5 Days | +0.29 |  |  |  | Days to pH Failure (Final Product Moisture Content): 5 Days; Days to pH Failure (Initial Moisture Content): 8 Days
OC[C@H]1O[C@H](O[C@]2(CCl)O[C@H](CCl)[C@@H](O)[C@@H]2O)[C@H](O)[C@@H](O)[C@H]1Cl [Sample 14, 4,1′,6′-trichloro-4,1′,6′-trideoxy-galactosucrose] |  |  | 6 Days | 5.95 | +0.02 | 
OC[C@H]1O[C@H](O[C@]2(CCl)O[C@H](CCl)[C@@H](O)[C@@H]2O)[C@H](O)[C@@H](O)[C@H]1Cl [Sample 42, 4,1′,6′-trichloro-4,1′,6′-trideoxy-galactosucrose] | 5 Days | +0.17 |  |  |  | Days to pH Failure (Final Product Moisture Content): 5 Days; Days to pH Failure (Initial Moisture Content): 9 Days
OC[C@H]1O[C@H](O[C@]2(CCl)O[C@H](CCl)[C@@H](O)[C@@H]2O)[C@H](O)[C@@H](O)[C@H]1Cl [Sample 3, 4,1′,6′-trichloro-4,1′,6′-trideoxy-galactosucrose] |  |  | 6 Days | 5.44 | −0.48 | 
OC[C@H]1O[C@H](O[C@]2(CCl)O[C@H](CCl)[C@@H](O)[C@@H]2O)[C@H](O)[C@@H](O)[C@H]1Cl [Sample 20, 4,1′,6′-trichloro-4,1′,6′-trideoxy-galactosucrose] |  |  | 6 Days | 6.09 | +0.08 | 
OC[C@H]1O[C@H](O[C@]2(CCl)O[C@H](CCl)[C@@H](O)[C@@H]2O)[C@H](O)[C@@H](O)[C@H]1Cl [Sample 46, 4,1′,6′-trichloro-4,1′,6′-trideoxy-galactosucrose] | 7 Days | +0.43 |  |  |  | 
OC[C@H]1O[C@H](O[C@]2(CCl)O[C@H](CCl)[C@@H](O)[C@@H]2O)[C@H](O)[C@@H](O)[C@H]1Cl [Sample 35, 4,1′,6′-trichloro-4,1′,6′-trideoxy-galactosucrose] | 5 Days | +0.10 |  |  |  | Days to pH Failure (Final Product Moisture Content): 5 Days; Days to pH Failure (Initial Moisture Content): 7 Days
OC[C@H]1O[C@H](O[C@]2(CCl)O[C@H](CCl)[C@@H](O)[C@@H]2O)[C@H](O)[C@@H](O)[C@H]1Cl [Sample 18, 4,1′,6′-trichloro-4,1′,6′-trideoxy-galactosucrose] |  |  | 6 Days | 6.00 | +0.07 | 
OC[C@H]1O[C@H](O[C@]2(CCl)O[C@H](CCl)[C@@H](O)[C@@H]2O)[C@H](O)[C@@H](O)[C@H]1Cl [Sample 19, 4,1′,6′-trichloro-4,1′,6′-trideoxy-galactosucrose] |  |  | 6 Days | 6.06 | +0.13 | 
OC[C@H]1O[C@H](O[C@]2(CCl)O[C@H](CCl)[C@@H](O)[C@@H]2O)[C@H](O)[C@@H](O)[C@H]1Cl [Sample 39, 4,1′,6′-trichloro-4,1′,6′-trideoxy-galactosucrose] | 7 Days | −0.02 |  |  |  | Days to pH Failure (Final Product Moisture Content): 7 Days; Days to pH Failure (Initial Moisture Content): 13 Days
OC[C@H]1O[C@H](O[C@]2(CCl)O[C@H](CCl)[C@@H](O)[C@@H]2O)[C@H](O)[C@@H](O)[C@H]1Cl [Sample 10, 4,1′,6′-trichloro-4,1′,6′-trideoxy-galactosucrose] |  |  | 5 Days | 5.90 | −0.05 | 
OC[C@H]1O[C@H](O[C@]2(CCl)O[C@H](CCl)[C@@H](O)[C@@H]2O)[C@H](O)[C@@H](O)[C@H]1Cl [Sample 2, 4,1′,6′-trichloro-4,1′,6′-trideoxy-galactosucrose] |  |  | 6 Days | 5.73 | −0.19 | 
OC[C@H]1O[C@H](O[C@]2(CCl)O[C@H](CCl)[C@@H](O)[C@@H]2O)[C@H](O)[C@@H](O)[C@H]1Cl [Sample 47, 4,1′,6′-trichloro-4,1′,6′-trideoxy-galactosucrose] |  |  |  |  |  | Ph Stability [4]: 33 days; Ph Stability [5]: 4 days
OC[C@H]1O[C@H](O[C@]2(CCl)O[C@H](CCl)[C@@H](O)[C@@H]2O)[C@H](O)[C@@H](O)[C@H]1Cl [sucralose, 4,1′,6′-trichloro-4,1′,6′-trideoxy-galactosucrose] |  |  |  |  |  | Ph Stability [4]: 33 days; Ph Stability [5]: 4 days

Continued, in another order:

Days to pH Failure [1] | Initial pH difference [1] | Days to pH Failure [2] | Initial pH [2] | Initial pH difference [3] | SMILES | other results
7 Days | +0.40 |  |  |  | OC[C@H]1O[C@H](O[C@]2(CCl)O[C@H](CCl)[C@@H](O)[C@@H]2O)[C@H](O)[C@@H](O)[C@H]1Cl [Sample 40, 4,1′,6′-trichloro-4,1′,6′-trideoxy-galactosucrose] | Days to pH Failure (Final Product Moisture Content): 7 Days; Days to pH Failure (Initial Moisture Content): 13 Days
 |  | 5 Days | 6.12 | +0.13 | OC[C@H]1O[C@H](O[C@]2(CCl)O[C@H](CCl)[C@@H](O)[C@@H]2O)[C@H](O)[C@@H](O)[C@H]1Cl [Sample 23, 4,1′,6′-trichloro-4,1′,6′-trideoxy-galactosucrose] | 
3 Days | −1.03 |  |  |  | OC[C@H]1O[C@H](O[C@]2(CCl)O[C@H](CCl)[C@@H](O)[C@@H]2O)[C@H](O)[C@@H](O)[C@H]1Cl [Sample 34, 4,1′,6′-trichloro-4,1′,6′-trideoxy-galactosucrose] | stability at intermediate moisture contents compared with final moisture levels: less stable at intermediate moisture contents (3 to 5%) than they were at their final moisture levels
 |  | 6 Days | 6.03 | +0.05 | OC[C@H]1O[C@H](O[C@]2(CCl)O[C@H](CCl)[C@@H](O)[C@@H]2O)[C@H](O)[C@@H](O)[C@H]1Cl [Sample 25, 4,1′,6′-trichloro-4,1′,6′-trideoxy-galactosucrose] | 
 |  | 6 Days | 6.00 | +0.02 | OC[C@H]1O[C@H](O[C@]2(CCl)O[C@H](CCl)[C@@H](O)[C@@H]2O)[C@H](O)[C@@H](O)[C@H]1Cl [Sample 28, 4,1′,6′-trichloro-4,1′,6′-trideoxy-galactosucrose] | 
 |  | 6 Days | 6.20 | +0.27 | OC[C@H]1O[C@H](O[C@]2(CCl)O[C@H](CCl)[C@@H](O)[C@@H]2O)[C@H](O)[C@@H](O)[C@H]1Cl [Sample 16, 4,1′,6′-trichloro-4,1′,6′-trideoxy-galactosucrose] | 
 |  | 5 Days | 5.70 | −0.22 | OC[C@H]1O[C@H](O[C@]2(CCl)O[C@H](CCl)[C@@H](O)[C@@H]2O)[C@H](O)[C@@H](O)[C@H]1Cl [Sample 7, 4,1′,6′-trichloro-4,1′,6′-trideoxy-galactosucrose] | 
